Patent publication US12540120B2, “Herbicidal compounds” (SYNGENTA CROP PROTECTION AG, priority 2019, dated 2026)

Columns and labels:
Assay type in all cases: in vivo
[1] = tested on: Echinochloa crus-galli (ECHCG); experiment: B6 Pre-Emergence Efficacy—Test 3; details: pre-emergence application, 250 g/ha, evaluated after 13 days (Test 3)
Description: (§1) B6 Pre-Emergence Efficacy—Test 3 Seeds of a variety of test species were sown in standard soil in pots: Amaranthus retoflexus (AMARE), Setaria faberi (SETFA), Echinochloa crus-galli (ECHCG), Ipomoea hederacea (IPOHE), Zea Mays (ZEAMX), Abutilon theophrasti (ABUTH). After cultivation for one day (pre-emergence) under controlled conditions in a glasshouse (at 24/16° C., day/night; 14 hours light; 65% humidity), the plants were sprayed with an aqueous spray solution derived from the formulation of the technical active ingredient in acetone/water (50:50) solution containing 0.5% Tween 20 (polyoxyethelyene sorbitan monolaurate, CAS RN 9005-64-5). Compounds are applied at 250 g/ha. The test plants were then grown in a glasshouse under controlled conditions (at 24/16° C., day/night; 14 hours light; 65% humidity) and watered twice daily. After 13 days, the test is evaluated for the percentage damage caused to the plant. The biological activities are assessed on a five point scale (5=80-100%; 4=60-79%; 3=40-59%; 2=20-39%; 1=0-19%). A blank value in the table is indicative that the compound was not tested on that species.

[2] = tested on: Abutilon theophrasti (ABUTH); experiment: B6 Pre-Emergence Efficacy—Test 3; details: pre-emergence application, 250 g/ha, evaluated after 13 days (Test 3)
Description: as §1

[3] = tested on: Zea Mays (ZEAMX); experiment: B6 Pre-Emergence Efficacy—Test 3; details: pre-emergence application, 250 g/ha, evaluated after 13 days (Test 3)
Description: as §1

[4] = tested on: Amaranthus retoflexus (AMARE); experiment: B6 Pre-Emergence Efficacy—Test 3; details: pre-emergence application, 250 g/ha, evaluated after 13 days (Test 3)
Description: as §1

[5] = tested on: Setaria faberi (SETFA); experiment: B6 Pre-Emergence Efficacy—Test 3; details: pre-emergence application, 250 g/ha, evaluated after 13 days (Test 3)
Description: as §1

[6] = tested on: Ipomoea hederacea (IPOHE); experiment: B6 Pre-Emergence Efficacy—Test 3; details: pre-emergence application, 250 g/ha, evaluated after 13 days (Test 3)
Description: as §1

[7] = tested on: Echinochloa crus-galli (ECHCG); experiment: B3 Post-Emergence Efficacy—Test 3; details: post-emergence application, 250 g/ha, evaluated after 13 days (Test 3)
Description: (§2) B3 Post-Emergence Efficacy—Test 3 Seeds of a variety of test species are sown in standard soil in pots:—Amaranthus retoflexus (AMARE), Setaria faberi (SETFA), Echinochloa crus-galli (ECHCG), Ipomoea hederacea (IPOHE), Zea Mays (ZEAMX), Abutilon theophrasti (ABUTH). After 8 days cultivation (post-emergence) under controlled conditions in a glasshouse (at 24/16° C., day/night; 14 hours light; 65% humidity), the plants are sprayed with an aqueous spray solution derived from the formulation of the technical active ingredient in acetone/water (50:50) solution containing 0.5% Tween 20 (polyoxyethylene sorbitan monolaurate, CAS RN 9005-64-5). Compounds are applied at 250 g/ha. The test plants are then grown in a glasshouse under controlled conditions in a glasshouse (at 24/16° C., day/night; 14 hours light; 65% humidity) and watered twice daily. After 13 days, the test is evaluated for the percentage damage caused to the plant. The biological activities are assessed on a five point scale (5=80-100%; 4=60-79%; 3=40-59%; 2=20-39%; 1=0-19%). A blank value in the table is indicative that the compound was not tested on that species.

[8] = tested on: Abutilon theophrasti (ABUTH); experiment: B3 Post-Emergence Efficacy—Test 3; details: post-emergence application, 250 g/ha, evaluated after 13 days (Test 3)
Description: as §2

[9] = tested on: Zea Mays (ZEAMX); experiment: B3 Post-Emergence Efficacy—Test 3; details: post-emergence application, 250 g/ha, evaluated after 13 days (Test 3)
Description: as §2

[10] = tested on: Amaranthus retoflexus (AMARE); experiment: B3 Post-Emergence Efficacy—Test 3; details: post-emergence application, 250 g/ha, evaluated after 13 days (Test 3)
Description: as §2

[11] = tested on: Setaria faberi (SETFA); experiment: B3 Post-Emergence Efficacy—Test 3; details: post-emergence application, 250 g/ha, evaluated after 13 days (Test 3)
Description: as §2

[12] = tested on: Ipomoea hederacea (IPOHE); experiment: B3 Post-Emergence Efficacy—Test 3; details: post-emergence application, 250 g/ha, evaluated after 13 days (Test 3)
Description: as §2

Row | SMILES | percentage damage caused to the plant, five point scale, ECHCG [1] | percentage damage caused to the plant, five point scale, ABUTH [2] | percentage damage caused to the plant, five point scale, ZEAMX [3] | percentage damage caused to the plant, five point scale, AMARE [4] | percentage damage caused to the plant, five point scale, SETFA [5] | percentage damage caused to the plant, five point scale, IPOHE [6] | percentage damage caused to the plant, five point scale, ECHCG [7] | percentage damage caused to the plant, five point scale, ABUTH [8] | percentage damage caused to the plant, five point scale, ZEAMX [9] | percentage damage caused to the plant, five point scale, AMARE [10] | percentage damage caused to the plant, five point scale, SETFA [11] | percentage damage caused to the plant, five point scale, IPOHE [12]
1 | Cc1nn(C)c(=O)c(-c2c(F)ccc(Cl)c2CCc2ccc(C3CCC(C)O3)cc2)c1O (stereo not shown) [Compound A-1.380] | 0 | 4 (4=60-79%) | 2 (2=20-39%) | 5 (5=80-100%) | 1 (1=0-19%) | 4 (4=60-79%) | 1 (1=0-19%) | 3 (3=40-59%) | 2 (2=20-39%) | 4 (4=60-79%) | 3 (3=40-59%) | 3 (3=40-59%)
2 | Cc1ccc(-c2ccc(CCc3c(Cl)ccc(F)c3-c3c(O)c(C)nn(C)c3=O)cc2)o1 [Compound A-1.381] | 0 | 1 (1=0-19%) | 1 (1=0-19%) | 3 (3=40-59%) | 0 | 3 (3=40-59%) | 0 | 3 (3=40-59%) | 1 (1=0-19%) | 4 (4=60-79%) | 2 (2=20-39%) | 4 (4=60-79%)
3 | Cc1nn(C)c(=O)c(-c2c(F)ccc(Cl)c2CCc2ccc(CSC(C)C)cc2)c1O [Compound A-1.389] | 5 (5=80-100%) | 3 (3=40-59%) | 4 (4=60-79%) | 5 (5=80-100%) | 5 (5=80-100%) | 5 (5=80-100%) | 5 (5=80-100%) | 4 (4=60-79%) | 5 (5=80-100%) | 4 (4=60-79%) | 5 (5=80-100%) | 5 (5=80-100%)
4 | Cc1nn(C)c(=O)c(-c2c(F)ccc(Cl)c2CCc2ccc(S(N)(=O)=O)cc2)c1O [Compound A-1.391] |  | 2 (2=20-39%) | 0 | 5 (5=80-100%) | 5 (5=80-100%) | 2 (2=20-39%) |  | 2 (2=20-39%) | 1 (1=0-19%) | 4 (4=60-79%) | 4 (4=60-79%) | 3 (3=40-59%)
5 | Cc1nn(C)c(=O)c(-c2c(F)ccc(Cl)c2CCc2ccc(C(N)=O)cc2)c1O [Compound A-1.392] | 5 (5=80-100%) | 5 (5=80-100%) | 2 (2=20-39%) | 5 (5=80-100%) | 5 (5=80-100%) | 5 (5=80-100%) |  | 4 (4=60-79%) | 2 (2=20-39%) | 5 (5=80-100%) | 5 (5=80-100%) | 3 (3=40-59%)
6 | CSCc1ccc(CCc2c(Cl)ccc(F)c2-c2c(O)c(C)nn(C)c2=O)cc1 [Compound A-1.388, 4-[3-chloro-6-fluoro-2-[2-[4-(methylsulfanylmethyl)phenyl]ethyl]phenyl]-5-hydroxy-2,6-dimethyl-pyridazin-3-one] | 5 (5=80-100%) | 5 (5=80-100%) | 4 (4=60-79%) | 5 (5=80-100%) | 5 (5=80-100%) | 5 (5=80-100%) | 4 (4=60-79%) | 5 (5=80-100%) | 4 (4=60-79%) | 5 (5=80-100%) | 4 (4=60-79%) | 4 (4=60-79%)
7 | Cc1nn(C)c(=O)c(-c2c(F)ccc(Cl)c2CCc2cnn(-c3ccccc3)c2)c1O [Compound A-1.386] | 5 (5=80-100%) | 2 (2=20-39%) | 2 (2=20-39%) | 2 (2=20-39%) | 5 (5=80-100%) | 4 (4=60-79%) | 4 (4=60-79%) | 3 (3=40-59%) | 4 (4=60-79%) | 4 (4=60-79%) | 4 (4=60-79%) | 4 (4=60-79%)
8 | Cc1nn(C)c(=O)c(-c2c(F)ccc(Cl)c2CCc2ccc(-c3ncco3)cc2)c1O [Compound A-1.382] | 5 (5=80-100%) | 4 (4=60-79%) | 4 (4=60-79%) | 5 (5=80-100%) | 5 (5=80-100%) | 5 (5=80-100%) | 4 (4=60-79%) | 4 (4=60-79%) | 5 (5=80-100%) | 4 (4=60-79%) | 4 (4=60-79%) | 5 (5=80-100%)
9 | CNS(=O)(=O)c1ccc(CCc2c(Cl)ccc(F)c2-c2c(O)c(C)nn(C)c2=O)cc1 [Compound A-1.390] |  | 5 (5=80-100%) | 1 (1=0-19%) | 5 (5=80-100%) | 5 (5=80-100%) | 5 (5=80-100%) |  | 4 (4=60-79%) | 1 (1=0-19%) | 5 (5=80-100%) | 5 (5=80-100%) | 4 (4=60-79%)
